Test results published in article PMC4450297, “Screening Active Compounds from Garcinia Species Native to China Reveals Novel Compounds Targeting the STAT/JAK Signaling Pathway” (BioMed Research International, 2015).

How the values were obtained:
Test in all cases: Cell panel screen (CellTiter-Glo)
Assay type in all cases: cell-based, human
Colo 205 = details: Colo 205, 20 micromolar, 72 hrs
Summary of the method: (§1)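 Here, cancer cells cultured in medium with 10% FBS are treated for 72 h with each compound at 20 μM final. Viability is measured by ATP-dependent luminescence, and growth inhibition is calculated as a percentage against vehicle-only wells minus cell-free background.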

RL95 = RL95 (Uterus), 20 micromolar, 72 hrs
Summary of the method: as §1

NCI-H28 = NCI-H28 (Lung), 20 micromolar, 72 hrs
Summary of the method: as §1

NCI-H2405 = NCI-H2405 (Lung), 20 micromolar, 72 hrs
Summary of the method: as §1

BT-549 = BT-549 (Breast), 20 micromolar, 72 hrs
Summary of the method: as §1

HT-1197 = HT-1197 (Urinary bladder), 20 micromolar, 72 hrs
Summary of the method: as §1

HEC-1-A = HEC-1-A (Uterus), 20 micromolar, 72 hrs
Summary of the method: as §1

A498 = A498 (listed under Lung), 20 micromolar, 72 hrs
Summary of the method: as §1

Panc 03.27 = Panc 03.27 (Pancreas), 20 micromolar, 72 hrs
Summary of the method: as §1

SW13 = SW13 (Adrenal gland), 20 micromolar, 72 hrs
Summary of the method: as §1

HCC1569 = HCC1569 (Breast), 20 micromolar, 72 hrs
Summary of the method: as §1

HPAF-II = HPAF-II (Pancreas), 20 micromolar, 72 hrs
Summary of the method: as §1

HCC1937 = HCC1937 (Breast), 20 micromolar, 72 hrs
Summary of the method: as §1

MSTO-211-H = MSTO-211-H (Lung), 20 micromolar, 72 hrs
Summary of the method: as §1

TCCSUP = TCCSUP (Urinary bladder), 20 micromolar, 72 hrs
Summary of the method: as §1

C3A = C3A (Liver), 20 micromolar, 72 hrs
Summary of the method: as §1

Bel-7402 = Bel-7402 (Liver), 20 micromolar, 72 hrs
Summary of the method: as §1

NCI-H1694 = NCI-H1694 (Lung), 20 micromolar, 72 hrs
Summary of the method: as §1

CW-2 = CW-2 (Colon), 20 micromolar, 72 hrs
Summary of the method: as §1

T98G = T98G (Brain), 20 micromolar, 72 hrs
Summary of the method: as §1

ZR-75-30 = ZR-75-30 (Breast), 20 micromolar, 72 hrs
Summary of the method: as §1

C8166 = C8166 (Leukemia), 20 micromolar, 72 hrs
Summary of the method: as §1

J82 = J82 (Urinary bladder), 20 micromolar, 72 hrs
Summary of the method: as §1

HCC1599 = HCC1599 (Breast), 20 micromolar, 72 hrs
Summary of the method: as §1

BT-474 = BT-474 (Breast), 20 micromolar, 72 hrs
Summary of the method: as §1

T47D = T47D (Breast), 20 micromolar, 72 hrs
Summary of the method: as §1

NCI-H1770 = NCI-H1770 (Lung), 20 micromolar, 72 hrs
Summary of the method: as §1

NCI-H1623 = NCI-H1623 (Lung), 20 micromolar, 72 hrs
Summary of the method: as §1

HGC-27 = HGC-27 (Stomach), 20 micromolar, 72 hrs
Summary of the method: as §1

A704 = A704 (Kidney), 20 micromolar, 72 hrs
Summary of the method: as §1

ChaGo-K-1 = ChaGo-K-1 (Lung), 20 micromolar, 72 hrs
Summary of the method: as §1

NCI-H524 = NCI-H524 (Lung), 20 micromolar, 72 hrs
Summary of the method: as §1

CCF-STTG1 = CCF-STTG1 (Brain), 20 micromolar, 72 hrs
Summary of the method: as §1

NCI-H2347 = NCI-H2347 (Lung), 20 micromolar, 72 hrs
Summary of the method: as §1

M059J = M059J (Brain), 20 micromolar, 72 hrs
Summary of the method: as §1

HCC1395 = HCC1395 (Breast), 20 micromolar, 72 hrs
Summary of the method: as §1

Structure (SMILES) | Percent Inhibition (Colo 205) [%] | Percent Inhibition (RL95) [%] | Percent Inhibition (NCI-H28) [%] | Percent Inhibition (NCI-H2405) [%] | Percent Inhibition (BT-549) [%] | Percent Inhibition (HT-1197) [%] | Percent Inhibition (HEC-1-A) [%] | Percent Inhibition (A498) [%] | Percent Inhibition (Panc 03.27) [%] | Percent Inhibition (SW13) [%] | Percent Inhibition (HCC1569) [%] | Percent Inhibition (HPAF-II) [%] | Percent Inhibition (HCC1937) [%] | Percent Inhibition (MSTO-211-H) [%] | Percent Inhibition (TCCSUP) [%] | Percent Inhibition (C3A) [%] | Percent Inhibition (Bel-7402) [%] | Percent Inhibition (NCI-H1694) [%] | Percent Inhibition (CW-2) [%] | Percent Inhibition (T98G) [%] | further results
COc1c(CC=C(C)C)cc2c(=O)c3c(O)cc(O)cc3oc2c1O [gl-16] | 57 | 45 | 41 | 12 | 27 | 37 | 46 | 34 | 47 | 41 | 50 | 26 | 50 | 61 | 63 | 45 | 17 | 55 | 55 | 28 | Percent Inhibition (ZR-75-30): 93%; Percent Inhibition (C8166): 77%; Percent Inhibition (J82): 50%; Percent Inhibition (HCC1599): 67%; Percent Inhibition (BT-474): 16%; Percent Inhibition (T47D): 36%; Percent Inhibition (NCI-H1770): 21%; Percent Inhibition (NCI-H1623): 18%; Percent Inhibition (HGC-27): 58%; Percent Inhibition (A704): 9%; Percent Inhibition (ChaGo-K-1): 57%; Percent Inhibition (NCI-H524): 56%; Percent Inhibition (CCF-STTG1): 25%; Percent Inhibition (NCI-H2347): 42%; Percent Inhibition (M059J): 33%; Percent Inhibition (HCC1395): 69%
COc1c(CC=C(C)C)c(O)c2c(=O)c3ccc(O)c(O)c3oc2c1CC=C(C)C [gl-9] | 97 | 98 | 86 | 93 | 96 | 97 | 85 | 86 | 92 | 99 | 93 | 85 | 94 | 98 | 96 | 77 | 96 | 100 | 99 | 98 | Percent Inhibition (ZR-75-30): 99%; Percent Inhibition (C8166): 96%; Percent Inhibition (J82): 99%; Percent Inhibition (HCC1599): 95%; Percent Inhibition (BT-474): 94%; Percent Inhibition (T47D): 90%; Percent Inhibition (NCI-H1770): 93%; Percent Inhibition (NCI-H1623): 85%; Percent Inhibition (HGC-27): 97%; Percent Inhibition (A704): 88%; Percent Inhibition (ChaGo-K-1): 97%; Percent Inhibition (NCI-H524): 99%; Percent Inhibition (CCF-STTG1): 92%; Percent Inhibition (NCI-H2347): 82%; Percent Inhibition (M059J): 92%; Percent Inhibition (HCC1395): 98%
C=C(C)C(O)Cc1c(O)cc2oc3cc(O)c(O)c(CC=C(C)C)c3c(=O)c2c1O (stereo not drawn) [bn-17, Bannaxanthone B] | 57 | 45 | 69 | 7 | 34 | 44 | 46 | 54 | 44 | 52 | 51 | 14 | 58 | 70 | 79 | 39 | 57 | 96 | 68 | 94 | Percent Inhibition (ZR-75-30): 81%; Percent Inhibition (C8166): 71%; Percent Inhibition (J82): 52%; Percent Inhibition (HCC1599): 84%; Percent Inhibition (BT-474): 27%; Percent Inhibition (T47D): 45%; Percent Inhibition (NCI-H1770): 12%; Percent Inhibition (NCI-H1623): 20%; Percent Inhibition (HGC-27): 62%; Percent Inhibition (A704): 19%; Percent Inhibition (ChaGo-K-1): 73%; Percent Inhibition (NCI-H524): -19%; Percent Inhibition (CCF-STTG1): 43%; Percent Inhibition (NCI-H2347): 23%; Percent Inhibition (M059J): 48%; Percent Inhibition (HCC1395): 83%
